Some results are limits rather than exact numbers.

Assay in all cases: Cell proliferation assay (Alamar Blue)
What all share (assay type): cell-based

For one test, the system named is SNU886. The settings on record: SNU-886, 144 h; SNU886 liver cancer cell line; 6 days. The method, then:
(§1) 1. Instruments and Materials • Thermo 311 CO2 incubator; Haier biosafety cabinet; Molecular Devices microplate reader; Xiangyi brand L530 desktop low speed centrifuge; Olympus IX51 inverted fluorescence microscope, DMEM, RPMI 1640, MEM, DMEM/F12 1:1 medium, Fetal bovine serum, 0.25% trypsin solution, phosphate buffer (Thermo Fisher Shanghai Co., Ltd.); sigma dimethyl sulfoxide (DMSO), resazurin; 54 commercial tumor cell lines (including 26 liver cancer cell lines). Experimental drugs: compounds 1-12 and active drug Linifanib; chemotherapeutic drug Doxorubicin (HY-15142; Shanghai Qianyuan Biomedical Technology Co., Ltd.).
(§2) 2. Experimental Methods • 2.1 Cultivation of different cell lines • 54 cell lines were cultured in a culture medium containing fetal bovine serum and placed in a 5% CO 2 incubator at 37° C. for incubation. The cells were all grown in an adherent state, and the growth was observed under an inverted microscope, and subculture was performed when the cell confluence rate reached 80%-90%. The proportion and quantity of passage were determined by experimental needs. The ratio of subculture of this cell line was generally 1:2^˜1:3. • 2.2 inhibition effect on the proliferation of different tumor cell lines • Cell test: 54 cell lines in logarithmic growth phase were inoculated in 96-well culture plates at 500^˜1×10^4/well (the optimal seeding density of each cell line was determined in pre-experiment), After incubating at 37° C. for 4 h in a 5% CO2 humidification incubator, added 10 μL of compounds 1-12 or Linifanib to each well, and tested 9 drug concentration gradients for each compound (diluted from the highest concentration of the test by 3.16 times). The solubility of each compound was different at a starting concentration of 30 or 100 μM, respectively. The QC reference compound Doxorubicin was added simultaneously to each cell line test, and the final drug concentrations were 10, 3.16, 1, 0.31, 0.1, 0.03, 0.01, 0.003, and 0.001 μM, respectively. In addition, a positive control group (100% inhibition) and a negative control group (0% inhibition) were set at the same time. The drug group was repeated for 2 wells per concentration, and the positive control group and the negative control group were repeated for 6 wells. After the culture was continued for 6 days in the incubator, AlamarBlue test operation was followed; • AlamarBlue test procedure: Incubated with 10 μL of AlamarBlue reagent per well for 1-4 h, shook for 1-2 min, MD microplate reader EX: 560 nm, EM: 590 nm wavelength to measure fluorescence, recorded the results, calculated the cell inhibition rate of the compound of the invention. Cell inhibition rate (%)=(A0% inhibition−A administration)/(A0% inhibition−A100% inhibition)×100%, and then using the method of nonlinear regression using Graph Pad Prism 5.0 or MATILAB software (usually using four parameters) to graph and obtain a drug dose response curve to obtain an IC50 value of the compound of the present invention acting on a cancer cell line.

The next test has as its system AN3CA. Conditions: for IC50: Homo sapiens, AN3-CA, 144 h, AN3CA (endometrial cells), 6 days. On the procedure: as §1, §2
For a further test, the system named is T.T. Conditions: Homo sapiens, TT, 144 h; T.T tumor cell line; 6 days. The method, then:
as §1, §2

Another test has as its system MDA-MB-231. Conditions: Homo sapiens, 144 h; MDA-MB-231 tumor cell line; 6 days. The method, then: as §1, §2
Another test has as its system DU145. The settings on record: Homo sapiens, DU-145, 144 h; DU145 tumor cell line; 6 days. On the procedure:
as §1, §2

The subject of a further test is CCRF-CEM. The settings on record: Homo sapiens, 144 h; CCRF-CEM tumor cell line; 6 days. On the procedure: as §1, §2
In the next test the test system is SNU423. Conditions: Homo sapiens, SNU-423, 144 h; SNU423 liver cancer cell line; 6 days. The method, then: as §1, §2
Another test has as its system NCl-H2170. The settings on record: 144 h; NCl-H2170 tumor cell line; 6 days. On the procedure: as §1, §2
A further test relates to Hep3B2.1-7. Conditions: 144 h; Hep3B2.1-7 liver cancer cell line; 6 days. On the procedure:
as §1, §2

The subject of another test is MG63. The settings on record: Homo sapiens, MG-63, 144 h; MG63 tumor cell line; 6 days. On the procedure:
as §1, §2

For the next test, the system named is MFM-223. The settings on record: Homo sapiens, 144 h; MFM-223 tumor cell line; 6 days. The method, then: as §1, §2
Another test has as its system SW620. Conditions: Homo sapiens, SW-620, 144 h; SW620 tumor cell line; 6 days. On the procedure:
as §1, §2

A further test relates to HUH7. Conditions: Homo sapiens, Huh-7, 144 h; HUH7 liver cancer cell line; 6 days. The method, then: as §1, §2
The next test concerns TE-6. The settings on record: Homo sapiens, 144 h; TE-6 tumor cell line; 6 days. The method, then:
as §1, §2

The next test has as its system LC-2-ad. The settings on record: Homo sapiens, 144 h; LC-2-ad tumor cell line; 6 days. The method, then:
as §1, §2

The next test deals with HLE. Conditions: Homo sapiens, 144 h; HLE liver cancer cell line; 6 days. On the procedure: as §1, §2
The next test deals with SNU354. Conditions: Homo sapiens, SNU-354, 144 h; SNU354 liver cancer cell line; 6 days. The method, then: as §1, §2
The test system of the next test is JHH5. The settings on record: 144 h; JHH5 liver cancer cell line; 6 days. On the procedure: as §1, §2
A further test relates to MDA-MB-435S. The settings on record: Homo sapiens, 144 h; MDA-MB-435S tumor cell line; 6 days. The method, then: as §1, §2
The subject of a further test is JHH7. The settings on record: 144 h; JHH7 liver cancer cell line; 6 days. On the procedure:
as §1, §2

The subject of another test is DLD1. The settings on record: Homo sapiens, DLD-1, 144 h; DLD1 tumor cell line; 6 days. The method, then: as §1, §2
Another test deals with K562. The settings on record: Homo sapiens, 144 h; K562 tumor cell line; 6 days. On the procedure: as §1, §2
In the next test the test system is NCl-H1648. The settings on record: 144 h; NCl-H1648 tumor cell line; 6 days. The method, then:
as §1, §2

With `Cc1ccc(F)c(NC(=O)Nc2ccc(-c3cccc4c3c(N)nn4C(=O)CCCCCCCCCCCNC(=O)C[C@H](N)C(=O)N[C@@H](CCC(=O)N[C@@H](CCC(=O)N[C@@H](CCC(=O)N[C@@H](CCC(=O)O)C(=O)O)C(=O)O)C(=O)O)C(=O)O)cc2)c1` [Compound 8], the IC50 (commonly the concentration that inhibits the measured activity by half) with SNU886 is 61 µM; with AN3CA it was 3.14 µM; in the test on T.T, over 100 µM; in the test with MDA-MB-231, 53.5 µM; in the test on DU145, 20.7 µM; in the test on CCRF-CEM it was over 100 µM. Besides, the half-inhibitory concentration (IC50) in the test with SNU423 was 36.9 µM; in the test with NCl-H2170, 51.9 µM; in the test with Hep3B2.1-7, 36.2 µM; in the test on MG63, 37.2 µM; in the test on MFM-223, 24 µM; in the test on SW620, 44.5 µM. Also, the IC50 was 23.6 µM in the test with HUH7; over 100 µM in the test with TE-6; 50.2 µM in the test on LC-2-ad; 36.8 µM in the test on HLE; 40.6 µM in the test on SNU354; 48.6 µM in the test on JHH5. Further, the IC50 in the test on MDA-MB-435S was 38.5 µM; in the test with JHH7, 20.7 µM; with DLD1 it was 51.1 µM; in the test with K562, over 100 µM; with NCl-H1648 it was over 100 µM. Further, in the test on AN3CA (AN3-CA (endometrial cells)), the “difference of IC50 value versus Linifanib” value is 16.7 times.

Consider `Cc1ccc(F)c(NC(=O)Nc2ccc(-c3cccc4c3c(N)nn4C(=O)C[C@H](N)C(=O)N[C@@H](CCC(=O)N[C@@H](CCC(=O)N[C@@H](CCC(=O)N[C@@H](CCC(=O)N[C@@H](CCC(=O)N[C@@H](CCC(=O)N[C@@H](CCC(=O)N[C@@H](CCC(=O)N[C@@H](CCC(=O)O)C(=O)O)C(=O)O)C(=O)O)C(=O)O)C(=O)O)C(=O)O)C(=O)O)C(=O)O)C(=O)O)cc2)c1` [Compound 3], for which the IC50 turned out to be 9.06 µM in the test with SNU886; 0.64 µM in the test with AN3CA; 19.8 µM in the test with T.T; 8.51 µM in the test on MDA-MB-231; 7.38 µM in the test on DU145; 10.2 µM in the test with CCRF-CEM. In addition, the IC50 in the test with SNU423 came out at 26.1 µM; with NCl-H2170, 7.89 µM; in the test with Hep3B2.1-7, 5.33 µM; in the test on MG63, 27.1 µM; in the test on MFM-223 it was 21.9 µM; with SW620, 10.4 µM. Moreover, the IC50 with HUH7 turned out to be 6.69 µM; in the test on TE-6, 11.3 µM; with LC-2-ad it was 22.4 µM; in the test on HLE, 4.72 µM; in the test on SNU354 it was 16.8 µM; in the test on JHH5, 31 µM. The IC50 in the test on MDA-MB-435S was determined as 46.4 µM; in the test on JHH7 it was 5.69 µM; with DLD1 it was 20.3 µM; in the test on K562, 16.9 µM; with NCl-H1648 it was 13.6 µM.

On to `Cc1ccc(F)c(NC(=O)Nc2ccc(-c3cccc4c3c(N)nn4C(=O)C[C@H](N)C(=O)N[C@@H](CCC(=O)O)C(=O)O)cc2)c1` [Compound 1], for which the IC50 in the test on SNU886 was determined as 1.47 µM; in the test on AN3CA, 0.31 µM; with T.T it was 5.22 µM; in the test on MDA-MB-231, 3.95 µM; in the test on DU145, 2.76 µM; in the test with CCRF-CEM, 2.5 µM. Further, the IC50 was determined as 9.03 µM in the test with SNU423; 0.97 µM with NCl-H2170; 1.59 µM in the test with Hep3B2.1-7; 7.69 µM in the test with MG63; 8.89 µM in the test with MFM-223; 2.79 µM in the test with SW620. The IC50 in the test with HUH7 came out at 3.22 µM; in the test on TE-6, 4.29 µM; in the test with LC-2-ad, 8.89 µM; with HLE, 1.98 µM; in the test with SNU354, 3.91 µM; with JHH5, 15.2 µM. The IC50 in the test on MDA-MB-435S worked out at 18.9 µM; in the test on JHH7, 1.81 µM; with DLD1 it was 9.86 µM; in the test on K562, 3.99 µM; with NCl-H1648, 6.89 µM.

With `Cc1ccc(F)c(NC(=O)Nc2ccc(-c3cccc4c3c(N)nn4C(=O)C[C@H](N)C(=O)O)cc2)c1` [Compound 10], the IC50 was 1.45 µM with SNU886; 0.24 µM in the test with AN3CA; 4.37 µM with T.T; 3.17 µM in the test on MDA-MB-231; 1.34 µM in the test with DU145; 1.74 µM with CCRF-CEM. The IC50 with SNU423 turned out to be 8.62 µM; with NCl-H2170, 1.24 µM; in the test on Hep3B2.1-7, 1.23 µM; with MG63, 4.37 µM; with MFM-223, 5.63 µM; in the test with SW620, 3.46 µM. In addition, the IC50 was 2.89 µM in the test on HUH7; 4.11 µM in the test on TE-6; 6.38 µM with LC-2-ad; 1.26 µM in the test on HLE; 4.57 µM in the test on SNU354; 12.4 µM with JHH5. For the same compound, the IC50 with MDA-MB-435S amounted to 13.3 µM; with JHH7, 1.65 µM; in the test on DLD1 it was 7.53 µM; in the test on K562, 3.04 µM; with NCl-H1648 it was 6.06 µM.

Regarding `Cc1ccc(F)c(NC(=O)Nc2ccc(-c3cccc4c3c(N)nn4C(=O)CCCCCNC(=O)C[C@H](N)C(=O)N[C@@H](CCC(=O)N[C@@H](CCC(=O)N[C@@H](CCC(=O)N[C@@H](CCC(=O)N[C@@H](CCC(=O)N[C@@H](CCC(=O)N[C@@H](CCC(=O)N[C@@H](CCC(=O)N[C@@H](CCC(=O)O)C(=O)O)C(=O)O)C(=O)O)C(=O)O)C(=O)O)C(=O)O)C(=O)O)C(=O)O)C(=O)O)cc2)c1` [Compound 6], the IC50 with SNU886 is over 100 µM; with AN3CA, 55.4 µM; in the test with T.T, over 100 µM; in the test with MDA-MB-231, over 100 µM; with DU145, 63.3 µM; with CCRF-CEM it was 90.5 µM. Further, the IC50 is over 100 µM in the test with SNU423; over 100 µM in the test with NCl-H2170; 95.6 µM in the test with Hep3B2.1-7; over 100 µM in the test with MG63; 72.2 µM with MFM-223; over 100 µM with SW620. Also, the IC50 is 92.1 µM in the test with HUH7; over 100 µM with TE-6; 67.8 µM with LC-2-ad; 68.9 µM in the test with HLE; over 100 µM in the test on SNU354; over 100 µM in the test with JHH5. The IC50 in the test with MDA-MB-435S was over 100 µM; with JHH7, 83.2 µM; with DLD1, over 100 µM; in the test with K562 it was 74.3 µM; in the test with NCl-H1648, over 100 µM.

Values taken from patent publication US11351151B2, “Compound having anticancer activity and preparation method and application” (3D Medicines (Beijing) Co., Ltd., priority 2016, dated 2022).
